Experimental data reported in patent US7259004B1, “Endophytic streptomycetes from higher plants with biological activity” (Montana State University, priority 2002, dated 2007).

Tests used:
[1] = tested on: Plasmodium falciparum strain CSC-1 (Honduras); assay: antimalarial assay, 3H-phenylalanine radiobioassay in human red blood cells; settings: human red blood cells, 3H-phenylalanine; standard deviation of the mean, three experiments
[2] = tested on: Candida albicans ATCC 90028; assay: disk diffusion assay; assay type: cell-based; settings: 10 micrograms per disk; 35° C. Also: key: R = resistant.
[3] = tested on: Enterococcus faecalis ATCC 51299 (VRE); assay: microbroth dilution MIC; assay type: cell-based; settings: resistant to vancomycin; first listing in Table 4
[4] = tested on: Cryptococcus neoformans; assay: microbroth dilution MIC
[5] = tested on: Candida tropicalis ATCC 750; assay: disk diffusion assay; assay type: cell-based; settings: 10 micrograms per disk; 35° C. Also: key: R = resistant.
[6] = tested on: Bacillus anthracis K8902; assay type: cell-based; settings: 10 micrograms per disk; ciprofloxacin 5, vancomycin 30 micrograms per disk; 35° C.
[7] = tested on: brine shrimp; assay: brine shrimp assays; settings: preliminary assays
[8] = tested on: Enterococcus faecalis ATCC 29212; assay: disk diffusion assay; assay type: cell-based; settings: 10 micrograms per disk; ciprofloxacin 5, vancomycin 30 micrograms per disk; 35° C.
[9] = tested on: S. epidermis ATCC 12228; assay: disk diffusion assay; assay type: cell-based, Staphylococcus epidermidis; settings: 10 micrograms per disk; 35° C.
[10] = tested on: Human Cervical Cancer Epithelial ME180; assay: CellTiter 96 Aqueous Non-Radioactive Cell Proliferation Assay; assay type: cell-based; settings: 48 hours; Table 7
Procedure: (§1) The munumbicins were then tested against three human cancer cell lines (ATCC) and human primary mammary epithelial cells (HMECs) (Clonetics; Biowhittaker, Walkersville, Md.) using a CellTiter 96® Aqueous Non-Radioactive Cell Proliferation Assay kit from Promega (Madison, Wis.). The cell lines were A-549 (lung epithelial carcinoma, ATCC CCL-185), ME-180 (cervical epithelial epidermoid carcinoma, ATCC HTB-33), and BT-20 (breast epithelial cancer, ATCC HTB-19), and were grown in the media recommended by ATCC. The primary mammary cells were cultured as recommended by the manufacturer in mammary epithelial cell growth media (MEGM®). […] After seeding, the cells were incubated for five hours at 37° C. before addition of the munumbicins. Two-fold serial dilutions of the munumbicins were made in the culture medium, and a volume equal to that of the seeded cells for each dilution was added to three wells of cells. Each plate also contained some wells with cells plus medium only and some wells with medium only. […] The A-549 and ME-180 cells were incubated for 48 hours. […] The plates were incubated at 37° C. for one to four hours, and the OD490 was determined. The OD reading of all wells was corrected for background by subtracting the reading of wells containing medium only. […] Kakadumycin A was tested against three human cancer cell lines (ATCC) and human primary mammary epithelial cells using the procedure described above for the munumbicins. Kadadumycin B was tested against one human cancer cell line.

[11] = tested on: Human Breast Cancer Epithelial BT-20; assay: as above; assay type: cell-based; settings: 96-144 hours; Table 7
Procedure: as §1

[12] = tested on: Human Lung Cancer Epithelial A549; assay: as above; assay type: cell-based; settings: 48 hours; Table 7
Procedure: as §1

[13] = tested on: Human Primary Mammary Epithelial HMEC; assay: as above; assay type: cell-based; settings: 48 hours; Table 7
Procedure: as §1

[14] = tested on: Pseudomonas aeruginosa ATCC 27853; assay: disk diffusion assay; assay type: cell-based; settings: 10 micrograms per disk; ciprofloxacin 5, vancomycin 30 micrograms per disk; 35° C. Also: key: R = resistant.
[15] = tested on: Shigella dysenteriae ATCC 11835; assay: disk diffusion assay; assay type: cell-based; settings: 10 micrograms per disk; 35° C.
[16] = tested on: Candida krusei ATCC 6258; assay: disk diffusion assay; assay type: cell-based; settings: 10 micrograms per disk; 35° C.
[17] = tested on: Vibrio fischeri PIC 345; assay: disk diffusion assay; assay type: cell-based; settings: 10 micrograms per disk; ciprofloxacin 5, vancomycin 30 micrograms per disk; 35° C.
[18] = tested on: Escherichia coli ATCC 25922; assay: disk diffusion assay; assay type: cell-based; settings: 10 micrograms per disk; penicillin G 10 units per disk; 35° C. Also: key: R = resistant.
[19] = tested on: Streptococcus pneumoniae ATCC 49619; assay: disk diffusion assay; assay type: cell-based; settings: 10 micrograms per disk; ciprofloxacin 5, vancomycin 30 micrograms per disk; MHA with 5% dsb. and 5% CO2
[20] = tested on: Candida parasdosis ATCC 90018; assay: disk diffusion assay; assay type: cell-based, Candida parapsilosis; settings: 10 micrograms per disk; 35° C. Also: key: R = resistant.
[21] = tested on: Candida albicans ATCC 24433; assay: disk diffusion assay; assay type: cell-based; settings: 10 micrograms per disk; 35° C. Also: key: R = resistant.
[22] = tested on: Pythium ultimum; assay: microbroth dilution MIC, plant associated microorganisms; assay type: cell-based; settings: PD broth, 48 hours at 23° C.
Procedure: (§2) Incubation was for 48 hours at 23° C. A plant pathogenic strain of Pseudomonas syringae was also tested using the same PD broth medium and with concentrations of colony forming units as given above. The organisms were obtained from the Montana State University plant pathogen culture collection administered by Dr. […] The relative activities against plant pathogenic fungi ranged from a few tenths of a microgram up to thirty micrograms. Table 2 provides the results of tests of inhibitory activity of the munumbicins against various plant-pathogenic fungi and one pathogenic bacterium. The data are reported as MIC values in micrograms/ml.

[23] = tested on: Pseudomonas syringae; assay: as above; assay type: cell-based; settings: PD broth
Procedure: as §2

[24] = tested on: Sclerotinia sclerotiorum; assay: as above; assay type: cell-based; settings: PD broth, 48 hours at 23° C.
Procedure: as §2

[25] = tested on: Staphylococcus aureus ATCC 29213; assay: disk diffusion assay; assay type: cell-based; settings: 10 micrograms per disk; ciprofloxacin 5, vancomycin 30 micrograms per disk; 35° C.
[26] = tested on: gram positive bacteria including Staphylococcus species, Streptococcus pneumoniae, Enterococcus species, Bacillus subtilis, and Listeria monocytogenes; assay: activity against Gram positive bacteria (general statements); assay type: cell-based
[27] = tested on: Aspergillus fumigatus; assay: microbroth dilution MIC
[28] = tested on: Staphylococcus aureus ATCC 33591 (MRSA); assay: microbroth dilution MIC; assay type: cell-based; settings: methicillin resistant strain; first listing in Table 4
[29] = tested on: Neisseria gonnorhea ATCC 49226; assay: disk diffusion assay; assay type: cell-based; settings: 10 micrograms per disk; ciprofloxacin 5, vancomycin 30 micrograms per disk; GC agar with 1% growth supplement with 5% CO2
[30] = tested on: S. maltophilia ATCC 13637; assay: disk diffusion assay; assay type: cell-based, Stenotrophomas maltophilia; settings: 10 micrograms per disk; 35° C.
[31] = tested on: Candida glabrata ATCC 2001; assay: disk diffusion assay; assay type: cell-based; settings: 10 micrograms per disk; 35° C. Also: key: R = resistant.
[32] = tested on: Enterococcus faecalis ATCC 51299; assay: disk diffusion assay; assay type: cell-based; settings: 10 micrograms per disk; ciprofloxacin 5, vancomycin 30 micrograms per disk; 35° C.
[33] = tested on: Candida parasilosis ATCC 22019; assay: disk diffusion assay; assay type: cell-based, Candida parapsilosis; settings: 10 micrograms per disk; 35° C. Also: key: R = resistant.
[34] = tested on: Acinetobacter sp. ATCC 49137; assay: disk diffusion assay; assay type: cell-based; settings: 10 micrograms per disk; ciprofloxacin 5, vancomycin 30 micrograms per disk; grown at 30° C.

munumbicin A
IC50 Plasmodium falciparum [1]: 0.175 ± 0.106 µg/mL
diameter of the zone of inhibition, Candida albicans ATCC 90028 [2]: R
MIC Enterococcus faecalis ATCC 51299 [3]: 8 micrograms/ml
MIC Cryptococcus neoformans [4]: 10 micrograms/ml
diameter of the zone of inhibition, Candida tropicalis ATCC 750 [5]: R
diameter of the zone of inhibition, Bacillus anthracis K8902 [6]: 9.5 mm
LC50 brine shrimp [7]: 3.3 micrograms/ml
diameter of the zone of inhibition, Enterococcus faecalis ATCC 29212 [8]: R
diameter of the zone of inhibition, S. epidermis ATCC 12228 [9]: 9 mm
IC50 Human Cervical Cancer Epithelial ME180 [10]: 0.51 micrograms/ml
IC50 Human Breast Cancer Epithelial BT-20 [11]: 0.19 micrograms/ml
IC50 Human Lung Cancer Epithelial A549 [12]: 1 micrograms/ml
IC50 Human Primary Mammary Epithelial HMEC [13]: 0.331 micrograms/ml
diameter of the zone of inhibition, Pseudomonas aeruginosa ATCC 27853 [14]: R
diameter of the zone of inhibition, Shigella dysenteriae ATCC 11835 [15]: R
diameter of the zone of inhibition, Candida krusei ATCC 6258 [16]: R
diameter of the zone of inhibition, Vibrio fischeri PIC 345 [17]: R
diameter of the zone of inhibition, Escherichia coli ATCC 25922 [18]: R
diameter of the zone of inhibition, Streptococcus pneumoniae ATCC 49619 [19]: R
diameter of the zone of inhibition, Candida parasdosis ATCC 90018 [20]: R
diameter of the zone of inhibition, Candida albicans ATCC 24433 [21]: R
MIC Pythium ultimum [22]: 2.0 micrograms/ml
MIC Pseudomonas syringae [23]: 15.6 micrograms/ml
MIC Sclerotinia sclerotiorum [24]: 8.0 micrograms/ml
diameter of the zone of inhibition, Staphylococcus aureus ATCC 29213 [25]: R
activity against Gram positive bacteria incl. drug resistant strains (in words) [26]: shows activity
MIC Aspergillus fumigatus [27]: 20 micrograms/ml
MIC Staphylococcus aureus ATCC 33591 [28]: not active
diameter of the zone of inhibition, Neisseria gonnorhea ATCC 49226 [29]: 9 mm
diameter of the zone of inhibition, S. maltophilia ATCC 13637 [30]: R
diameter of the zone of inhibition, Candida glabrata ATCC 2001 [31]: R
diameter of the zone of inhibition, Enterococcus faecalis ATCC 51299 [32]: R
diameter of the zone of inhibition, Candida parasilosis ATCC 22019 [33]: R
diameter of the zone of inhibition, Acinetobacter sp. ATCC 49137 [34]: R
